This note sets out measurements from patent US4554275A, “Triazine derivatives” (Nippon Shinyaku Co., Ltd., priority 1982, dated 1985).

In data set [1] the test system is Carrageenin Edema. Briefly: Carrageenin edema inhibitory action (rat hind paw swelling). Format: in vivo, male rats (SLC-SD strain). As to conditions: po, 3 h, 400 mg/kg orally, one hour before 0.1 ml of 0.5% carrageenin into right hind paw, measured three hours later, vs control group, read-out: Carrageenin Edema Inhibitory Rate (%). As for the experimental part: Five male rats (SLC-SD strain, five weeks age, supplied by Seidokyo) were used in one group in the experiment. Drugs to be tested were given orally at a dose of 400 mg/kg and, one hour later, 0.1 ml of 0.5% carrageenin was injected subcutaneously to right hind paw. Three hours later, volumes of the right hind paws were measured, volumes of the paws before the carrageenin injection were deducted therefrom, and the resulting volumes were defined as a degree of swelling.
The inhibitory rates were calculated from mean degree of swelling of the drug-administered groups and the control group and the result is shown in Table 1.

The subject of data set [2] is male mice. As to conditions: mouse, in vivo, po, 2000 mg/kg.

Regarding `COc1cc2ccccc2cc1-c1nc(N)nc(N)n1` [Example 1, 2,4-diamino-6-(2-methoxy-3-naphthyl)-s-triazine], the inhibition in vivo at 400 mg/kg in data set [1] is 60.3%. Further, the Acute toxicity result in data set [2] is reported as “no toxicity was observed”.
For `COc1ccc(-c2nc(N)nc(NC(=O)c3cccnc3)n2)c2ccccc12` [Example 2, 2-amino-4-nicotinoylamino-6-(1-methoxy-4-naphthyl)-s-triazine], the inhibition in vivo at 400 mg/kg in data set [1] worked out at 34.7%. Moreover, in data set [2], the Acute toxicity entry is on record as “no toxicity was observed”.
Take `Nc1nc(NC(=O)c2cccnc2)nc(-c2cc3ccccc3cc2F)n1` [Example 3, 2-amino-4-nicotinoylamino-6-(2-fluoro-3-naphthyl)-s-triazine]: the inhibition in vivo at 400 mg/kg in data set [1] was found to be 56.5%. Moreover, the Acute toxicity entry in data set [2] is on record as “no toxicity was observed”.
Take `Nc1nc(N)nc(-c2cc3ccccc3cc2OCc2ccccc2)n1` [Example 5, 2,4-diamino-6-(2-benzyloxy-3-naphthyl)-s-triazine]: the inhibition in vivo at 400 mg/kg in data set [1] was found to be 30.4%.
Turning to `Nc1nc(N)nc(-c2ccc(OCc3ccccc3)c3ccccc23)n1` [Example 6, 2,4-diamino-6-(1-benzyloxy-4-naphthyl)-s-triazine], the inhibition in vivo at 400 mg/kg in data set [1] turned out to be 30.9%.
As to `COc1ccc2ccccc2c1-c1nc(N)nc(N)n1` [Example 7, 2,4-diamino-6-(2-methoxy-1-naphthyl)-s-triazine], the inhibition in vivo at 400 mg/kg in data set [1] was determined as 44.6%.
For the molecule `COc1ccc(-c2nc(N)nc(N)n2)c2ccccc12` [Example 9, 2,4-diamino-6-(1-methoxy-4-naphthyl)-s-triazine], the inhibition in vivo at 400 mg/kg in data set [1] stood at 52.4%. Also, the Acute toxicity result in data set [2] was “no toxicity was observed”.
As to `Nc1nc(N)nc(-c2ccc3cc(OCc4ccccc4)ccc3c2)n1` [Example 10, 2,4-diamino-6-(2-benzyloxy-6-naphthyl)-s-triazine], in data set [1], the inhibition in vivo at 400 mg/kg was 50.3%.
Same read-out and setting: next, `Nc1nc(N)nc(-c2cc3ccccc3cc2F)n1` [Example 11, 2,4-diamino-6-(2-fluoro-3-naphthyl)-s-triazine]: 48.8%.
As for `Nc1nc(N)nc(-c2cc3ccccc3cc2Cl)n1` [Example 12, 2,4-diamino-6-(2-chloro-3-naphthyl)-s-triazine], in data set [1], the inhibition in vivo at 400 mg/kg came out at 61.3%. Besides, in data set [2], the Acute toxicity entry is recorded as “no toxicity was observed”.
Take `Nc1nc(N)nc(-c2cc3ccccc3cc2Br)n1` [Example 13, 2,4-diamino-6-(2-bromo-3-naphthyl)-s-triazine]: the inhibition in vivo at 400 mg/kg in data set [1] turned out to be 49.1%.
With `Nc1nc(N)nc(-c2ccc(Cl)c3ccccc23)n1` [Example 14, 2,4-diamino-6-(1-chloro-4-naphthyl)-s-triazine], in data set [1], the inhibition in vivo at 400 mg/kg was 42.6%.
Turning to `Nc1nc(N)nc(-c2ccc(Br)c3ccccc23)n1` [Example 15, 2,4-diamino-6-(1-bromo-4-naphthyl)-s-triazine], the inhibition in vivo at 400 mg/kg in data set [1] amounted to 48.4%.
Take `COc1ccc2cc(-c3nc(N)nc(N)n3)ccc2c1` [Example 16, 2,4-diamino-6-(2-methoxy-6-naphthyl)-s-triazine]: the inhibition in vivo at 400 mg/kg in data set [1] came out at 51.1%.
Turning to `Nc1nc(NC(=O)c2cccnc2)nc(-c2ccc3ccccc3c2)n1` [Example 18, 2-Amino-4-nicotinoylamino-6-beta-naphthyl-s-triazine], the inhibition in vivo at 400 mg/kg in data set [1] was 24.8%. The Acute toxicity entry in data set [2] was “no toxicity was observed”.
As to `COc1cc2ccccc2cc1-c1nc(N)nc(NC(=O)c2cccnc2)n1` [Example 19, 2-amino-4-nicotinamido-6-(2-methoxy-3-naphthyl)-s-triazine], the inhibition in vivo at 400 mg/kg in data set [1] was 35%.
Turning to `Nc1nc(NC(=O)c2cccnc2)nc(-c2ccc3cc(OCc4ccccc4)ccc3c2)n1` [Example 23, 2-amino-4-nicotin-amido-6-(6-benzyloxy-2-naphthyl)-s-triazine], in data set [1], the inhibition in vivo at 400 mg/kg was determined as 28.1%. Besides, the Acute toxicity entry in data set [2] is “no toxicity was observed”.
For `Nc1nc(NC(=O)c2cccnc2)nc(-c2ccc(Cl)c3ccccc23)n1` [Example 24, 2-amino-4-nicotinamido-6-(1-chloro-4-naphthyl)-s-triazine], in that order: 25% and “no toxicity was observed”.
In the case of `Nc1nc(NC(=O)c2cccnc2)nc(-c2ccc(Br)c3ccccc23)n1` [Example 25, 2-amino-4-nicotinamidio-6-(1-bromo-4-naphthyl)-s-triazine], in data set [1], the inhibition in vivo at 400 mg/kg stood at 25.1%.
As for `Nc1nc(NC(=O)c2cccnc2)nc(-c2cc3ccccc3cc2Br)n1` [Example 27, 2-amino-4-nicotinamido-6-(2-bromo-3-naphthyl)-s-triazine], the inhibition in vivo at 400 mg/kg in data set [1] is 33.5%.
On to `Nc1nc(NC(=O)c2cccnc2)nc(-c2ccc3ccccc3c2O)n1` [Example 28, 2-amino-4-nicotinamido-6-(1-hydroxy-2-naphthyl)-s-triazine], for which, in data set [1], the inhibition in vivo at 400 mg/kg is 19.4%. Further, the Acute toxicity entry in data set [2] is “no toxicity was observed”.
